Test results as given in PMC10485906, “Development of a Dihydroquinoline–Pyrazoline GluN2C/2D-Selective Negative Allosteric Modulator of the N-Methyl-D-aspartate Receptor” (ACS Chemical Neuroscience, 2023).
Several values for one entry are separate records, joined by “and”; a condition that tells them apart may be missing. Equal entries are not always repeated. Where two headings read alike, the source gives them in different places.

How the values were obtained:
GluN1/GluN2D = GluN1/GluN2D (Rattus norvegicus, UniProt Q62645); parameters: GluN2B (NM_012574.1), GluN2C (NM_012575.3), and GluN2D (NM_022797.2) were provided by; expressed in transfected cells; host or cells: Xenopus laevis oocytes (cRNA injection); conditions: cited from earlier work
Sequence of GluN1/GluN2D (Q62645 28-1323, other chains not shown): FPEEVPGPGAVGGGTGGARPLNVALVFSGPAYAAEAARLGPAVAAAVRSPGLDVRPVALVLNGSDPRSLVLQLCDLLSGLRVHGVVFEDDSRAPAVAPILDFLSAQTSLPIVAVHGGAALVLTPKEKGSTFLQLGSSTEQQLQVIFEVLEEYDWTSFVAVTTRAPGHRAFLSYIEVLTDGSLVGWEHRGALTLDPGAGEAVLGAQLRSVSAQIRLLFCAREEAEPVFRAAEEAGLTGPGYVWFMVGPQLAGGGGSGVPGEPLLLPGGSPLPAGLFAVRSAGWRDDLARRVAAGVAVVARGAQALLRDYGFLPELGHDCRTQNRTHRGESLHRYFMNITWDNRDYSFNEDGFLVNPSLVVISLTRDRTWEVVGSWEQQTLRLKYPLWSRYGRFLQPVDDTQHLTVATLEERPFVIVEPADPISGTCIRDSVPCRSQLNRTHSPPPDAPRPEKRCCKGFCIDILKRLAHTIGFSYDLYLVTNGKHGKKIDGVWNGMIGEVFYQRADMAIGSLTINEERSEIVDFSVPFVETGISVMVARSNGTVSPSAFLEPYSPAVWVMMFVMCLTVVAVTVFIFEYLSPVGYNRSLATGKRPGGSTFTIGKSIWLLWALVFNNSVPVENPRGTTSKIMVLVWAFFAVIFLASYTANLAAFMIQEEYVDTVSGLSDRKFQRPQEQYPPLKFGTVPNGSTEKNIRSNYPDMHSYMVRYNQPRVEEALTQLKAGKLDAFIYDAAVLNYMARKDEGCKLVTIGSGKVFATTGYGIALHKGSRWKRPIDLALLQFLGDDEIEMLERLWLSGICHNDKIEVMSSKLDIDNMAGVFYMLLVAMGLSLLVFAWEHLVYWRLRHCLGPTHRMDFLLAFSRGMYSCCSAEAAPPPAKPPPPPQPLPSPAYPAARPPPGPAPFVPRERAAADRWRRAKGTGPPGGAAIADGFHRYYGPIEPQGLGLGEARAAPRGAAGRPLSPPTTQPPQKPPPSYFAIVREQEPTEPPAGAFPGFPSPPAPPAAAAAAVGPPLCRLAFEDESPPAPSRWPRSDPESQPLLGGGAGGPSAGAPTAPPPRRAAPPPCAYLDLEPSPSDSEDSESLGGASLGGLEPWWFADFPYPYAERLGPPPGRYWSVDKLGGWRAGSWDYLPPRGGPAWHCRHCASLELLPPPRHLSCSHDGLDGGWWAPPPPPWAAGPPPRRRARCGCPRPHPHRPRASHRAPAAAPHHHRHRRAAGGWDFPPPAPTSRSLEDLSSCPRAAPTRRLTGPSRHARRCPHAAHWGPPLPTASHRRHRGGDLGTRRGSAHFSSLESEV

[1] = Mouse plasma and brain pharmacokinetics, IP administration; format: in vivo; conditions: for concentration at 0.25 h / concentration at 0.5 h / concentration at 1 h / concentration at 2 h / concentration at 4 h: intraperitoneal; for AUC: read-out: AUC0.25–4 h brain; for AUC(0-t): read-out: AUC0.25–4 h plasma (AUCLAST)
Method: IACUC-approved protocols and animal welfare regulations outlined in the “Guide for the Care and Use of Laboratory Animals” were both followed during the pharmacokinetic evaluation of all compounds. In vivo analysis was performed by Pharmaron (IP administration, Irvine, CA) and Sai Life (IV administration, Hinjewadi Pune, Pune, India).
A group (n = 15) of fed, male C57BL/6 mice ∼6 to 8 weeks of age was injected IP with 10 mg/kg (1 mg/mL) of drug using 50% PEG400 in water as a vehicle. Samples were collected from the blood and brain at 0.25, 0.5, 1, 2, and 4 h after administration (3 mice per time point) following CO2 anesthesia. Collection from the brain was performed as follows: the mouse is terminally anaesthetized via rising concentration of CO2 and as much blood is removed as possible via cardiac puncture. The cardiac puncture is done by opening the chest cavity to expose the heart, cutting an incision in the right auricle using surgical scissors, and finally injecting a saline solution (∼10 mL) slowly into the left ventricle via a syringe. The mouse is placed head down at a 45° angle to facilitate blood removal. After perfusion, the skull is opened and the brain is removed. The whole brain is washed with saline, dried with surgical gauze, placed in tared tubes, and stored at −75 °C before analysis. For plasma sample preparation at the 0.25–2 h time points, 15 μL of blank solution, 30 μL of plasma sample, and 150 μL were added sequentially for protein precipitation. After centrifugation, 20 μL of the supernatant and 80 μL of collection buffer were combined, and thus, the final compound concentration in plasma (ng/mL) was corrected by multiplying by 5. For plasma sample preparation at the 4 h time point, 15 μL of blank solution, 30 μL of plasma sample, and 150 μL of acetonitrile were added sequentially for protein precipitation. For all brain sample preparation, 15 μL of blank solution, 30 μL of brain samples, and 150 μL of acetonitrile were added sequentially for protein precipitation. Brain samples were prepared by adding brain (g) to deionized water (mL) in a 1:4 ratio for homogenization. The mixtures were then vortexed for 30 s and subsequently centrifuged (∼4000 rpm) for 15 min. The supernatant was diluted 3-fold with water, and a 2 μL aliquot of the diluted supernatant was injected into a Shimadzu LC-30A LC-MS/MS system with a Phenomenex 2.6 μ PFP 100A column (30 mm × 2.1 mm) using verapamil as an internal standard. A gradient from 95% water (0.1% formic acid) to 95% ACN (0.1% formic acid) was run over 2 min at a flow rate of 0.6 mL/min. Brain and blood samples were collected at 15, 30, 60, 120, and 240 min from three C57Bl/6 mice at each time point. See Tables S6–S10 for 2i concentrations.

[2] = male, C57BL/6, mouse, brain, 10 mg/kg IP
[3] = male, C57BL/6, mouse, brain, 10 mg/kg IP, read-out: Tmax brain
[4] = male, C57BL/6, mouse, plasma, 10 mg/kg IP
[5] = male, C57BL/6, mouse, plasma, 10 mg/kg IP, read-out: Tmax plasma
[6] = male, C57BL/6, mouse, plasma, 10 mg/kg IP, read-out: t1/2 plasma (converted)
[7] = male, mouse, plasma, 10 mg/kg IP, C57BL/6 mice

O=C(O)CCC(=O)N1N=C(c2c(-c3ccc(Cl)cc3)c3ccccc3[nH]c2=O)CC1c1ccc(Cl)cc1 (centres unmarked) [2a]
I 30 μM / I control GluN2D (GluN1/GluN2D; 30 μM, reproduced for comparison): 2.0 ± 1.0 (2,5) % | Selectivity 2A IC50 / 2D IC50 (GluN1/GluN2D; GluN2D over GluN2A): 48 fold | Selectivity 2B IC50 / 2D IC50 (GluN1/GluN2D; GluN2D over GluN2B): 50 fold

O=C(O)CC(F)(F)C(=O)N1N=C(c2c(-c3ccc(Cl)cc3)c3ccccc3[nH]c2=O)CC1c1ccc(Cl)cc1 (centres unmarked) [2i]
AUC % Extrapolation brain ([1]; 10 mg/kg IP): 58% | AUC % Extrapolation plasma ([1]; 10 mg/kg IP): 15% | AUCINF brain ([1]; 10 mg/kg IP): 151 ng·h/g | AUCLAST brain ([1]; 10 mg/kg IP): 64 ng·h/g | Cmax brain ([1]; 10 mg/kg IP): 0.040 µM and 23 ng/g | Cmax brain ([1]; 10 mg/kg IP, C57BL/6 mice): 23 ng/mL | Brain/plasma Ratio, individual (Group 1-3) ([1]; 10 mg/kg IP, 0.25 h): 0.012 and 0.019 | brain calculated concentration, individual (Group 1-3) ([1]; 10 mg/kg IP, 0.25 h): 17.9 ng/g and 22.6 ng/g | plasma concentration, individual (Group 1-3) ([1]; 10 mg/kg IP, 0.25 hr): 1500.0 ng/mL and 1180.0 ng/mL | Brain/plasma Ratio, individual (Group 1-3) ([1]; 10 mg/kg IP, 0.5 h): 0.008 and 0.023 and 0.011 | brain calculated concentration, individual (Group 1-3) ([1]; 10 mg/kg IP, 0.5 h): 29.1 ng/g and 18.7 ng/g | plasma concentration, individual (Group 1-3) ([1]; 10 mg/kg IP, 0.5 hr): 2620.0 ng/mL and 1260.0 ng/mL and 1740.0 ng/mL | brain calculated concentration, individual (Group 1-3) ([1]; 10 mg/kg IP, 1 h): 16.5 ng/g and 14.9 ng/g | plasma concentration, individual (Group 1-3) ([1]; 10 mg/kg IP, 1 hr): 1270.0 ng/mL and 1170.0 ng/mL | Brain/plasma Ratio, individual (Group 1-3) ([1]; 10 mg/kg IP, 2 h): 0.016 and 0.022 | brain calculated concentration, individual (Group 1-3) ([1]; 10 mg/kg IP, 2 h): 18.0 ng/g and 24.3 ng/g | plasma concentration, individual (Group 1-3) ([1]; 10 mg/kg IP, 2 hr): 1140.0 ng/mL and 1080.0 ng/mL | Brain/plasma Ratio, individual (Group 1-3) ([1]; 10 mg/kg IP, 4 h): 0.058 and 0.050 and 0.022 | brain calculated concentration, individual (Group 1-3) ([1]; 10 mg/kg IP, 4 h): 10.4 ng/g and 12.8 ng/g | plasma concentration, individual (Group 1-3) ([1]; 10 mg/kg IP, 4 hr): 163.0 ng/mL and 208.0 ng/mL and 585.0 ng/mL | brain concentration in brain compartment ([1]; IP administration): 40 nM | brain concentration, upper limit if restricted to extracellular space ([1]; IP administration): ≤ 200 nM | Kp at 1 h ([1]; male, C57BL/6, mouse, brain and plasma, ip, 10 mg/kg, 10 mg/kg IP, 1 h, read-out: Brain/plasma Ratio, Mean): 0.013 | Kp at 2 h ([1]; male, C57BL/6, mouse, brain and plasma, ip, 10 mg/kg, 10 mg/kg IP, 2 h, read-out: Brain/plasma Ratio, Mean): 0.018 | Kp at 2 h ([1]; male, C57BL/6, mouse, brain and plasma, ip, 10 mg/kg, 10 mg/kg IP, 2 h, read-out: Brain/plasma Ratio, individual (Group 1-3)): 0.015 | Kp at 4 h ([1]; male, C57BL/6, mouse, brain and plasma, ip, 10 mg/kg, 10 mg/kg IP, 4 h, read-out: Brain/plasma Ratio, Mean): 0.043 | concentration at 0.25 h ([1]; male, C57BL/6, mouse, brain, 10 mg/kg, 10 mg/kg IP, 0.25 h, read-out: brain calculated concentration, Mean): 17.5 ng/g | concentration at 0.25 h ([1]; male, C57BL/6, mouse, brain, 10 mg/kg, 10 mg/kg IP, 0.25 h, read-out: brain calculated concentration, individual (Group 1-3)): 12 ng/g | concentration at 0.5 h ([1]; male, C57BL/6, mouse, brain, 10 mg/kg, 10 mg/kg IP, 0.5 h, read-out: brain calculated concentration, Mean): 22.8 ng/g | concentration at 0.5 h ([1]; male, C57BL/6, mouse, brain, 10 mg/kg, 10 mg/kg IP, 0.5 h, read-out: brain calculated concentration, individual (Group 1-3)): 20.6 ng/g | concentration at 1 h ([1]; male, C57BL/6, mouse, brain, 10 mg/kg, 10 mg/kg IP, 1 h, read-out: brain calculated concentration, Mean): 14.6 ng/g | concentration at 1 h ([1]; male, C57BL/6, mouse, brain, 10 mg/kg, 10 mg/kg IP, 1 h, read-out: brain calculated concentration, individual (Group 1-3)): 12.4 ng/g | concentration at 2 h ([1]; male, C57BL/6, mouse, brain, 10 mg/kg, 10 mg/kg IP, 2 h, read-out: brain calculated concentration, Mean): 19.4 ng/g | concentration at 2 h ([1]; male, C57BL/6, mouse, brain, 10 mg/kg, 10 mg/kg IP, 2 h, read-out: brain calculated concentration, individual (Group 1-3)): 15.9 ng/g | concentration at 4 h ([1]; male, C57BL/6, mouse, brain, 10 mg/kg, 10 mg/kg IP, 4 h, read-out: brain calculated concentration, Mean): 10.9 ng/g | concentration at 4 h ([1]; male, C57BL/6, mouse, brain, 10 mg/kg, 10 mg/kg IP, 4 h, read-out: brain calculated concentration, individual (Group 1-3)): 9.5 ng/g | Kp at 0.25 h ([1]; male, C57BL/6, mouse, brain/plasma, ip, 10 mg/kg, 10 mg/kg IP, 0.25 h, read-out: Brain/plasma Ratio, Mean): 0.014 | Kp at 0.25 h ([1]; male, C57BL/6, mouse, brain/plasma, ip, 10 mg/kg, 10 mg/kg IP, 0.25 h, read-out: Brain/plasma Ratio, individual (Group 1-3)): 0.01 | Kp at 0.5 h ([1]; male, C57BL/6, mouse, brain/plasma, ip, 10 mg/kg, 10 mg/kg IP, 0.5 h, read-out: Brain/plasma Ratio, Mean): 0.014 | Kp at 1 h ([1]; male, C57BL/6, mouse, brain/plasma, ip, 10 mg/kg, 10 mg/kg IP, 1 h, read-out: Brain/plasma Ratio, individual (Group 1-3)): 0.015 | Kp ([1]; male, C57BL/6, mouse, brain/plasma, ip, 10 mg/kg, 10 mg/kg IP, read-out: Ratio_AUCLAST (Brain/plasma)): 0.02 | AUC [1, 2]: 64 ng·h/mL | Tmax [1, 3]: 30 min | half-life ([1]; male, C57BL/6, mouse, brain, 10 mg/kg IP, read-out: t1/2 brain): > 240 min | concentration at 0.25 h ([1]; male, C57BL/6, mouse, plasma, 10 mg/kg, 10 mg/kg IP, 0.25 hr, read-out: plasma concentration, Mean): 1310 ng/mL | concentration at 0.25 h ([1]; male, C57BL/6, mouse, plasma, 10 mg/kg, 10 mg/kg IP, 0.25 hr, read-out: plasma concentration, individual (Group 1-3)): 1250 ng/mL | concentration at 0.5 h ([1]; male, C57BL/6, mouse, plasma, 10 mg/kg, 10 mg/kg IP, 0.5 hr, read-out: plasma concentration, Mean): 1870 ng/mL | concentration at 1 h ([1]; male, C57BL/6, mouse, plasma, 10 mg/kg, 10 mg/kg IP, 1 hr, read-out: plasma concentration, Mean): 1150 ng/mL | concentration at 1 h ([1]; male, C57BL/6, mouse, plasma, 10 mg/kg, 10 mg/kg IP, 1 hr, read-out: plasma concentration, individual (Group 1-3)): 1020 ng/mL | concentration at 2 h ([1]; male, C57BL/6, mouse, plasma, 10 mg/kg, 10 mg/kg IP, 2 hr, read-out: plasma concentration, Mean): 1090 ng/mL | concentration at 2 h ([1]; male, C57BL/6, mouse, plasma, 10 mg/kg, 10 mg/kg IP, 2 hr, read-out: plasma concentration, individual (Group 1-3)): 1060 ng/mL | concentration at 4 h ([1]; male, C57BL/6, mouse, plasma, 10 mg/kg, 10 mg/kg IP, 4 hr, read-out: plasma concentration, Mean): 319 ng/mL | Cmax [1, 4]: 3.3 µM | AUC(0-t) [1, 4]: 3850 ng·h/mL | AUC(0-inf) ([1]; male, C57BL/6, mouse, plasma, 10 mg/kg IP, read-out: AUCINF plasma): 4550 ng·h/mL | Tmax [1, 5]: 30 min | half-life [1, 6]: 90 min | Cmax [1, 7]: 1870 ng/mL

NC(=O)CC(F)(F)C(=O)N1N=C(c2c(-c3ccc(Cl)cc3)c3ccccc3[nH]c2=O)CC1c1ccc(Cl)cc1 (centres unmarked) [2k]
Cmax brain ([1]; 10 mg/kg IP, C57BL/6 mice): 13 ng/mL | AUC [1, 2]: 41 ng·h/mL | Tmax [1, 3]: 240 min | AUC(0-t) [1, 4]: 2270 ng·h/mL | Tmax [1, 5]: 30 min | half-life [1, 6]: 294 min | Cmax [1, 7]: 815 ng/mL
